Results taken from PMC8617627, “Novel DYRK1A Inhibitor Rescues Learning and Memory Deficits in a Mouse Model of Down Syndrome” (Pharmaceuticals, 2021).
Where two headings read alike, the source gives them in different places.

What was measured:
Experiment in all cases: Kinase profile (33P ATP filter binding)
Type in all cases: biochemical
CDK2-Cyclin A = CDK2-Cyclin A (Homo sapiens, UniProt P24941)
CK1δ = CK1δ (Homo sapiens, UniProt P48730); conditions: read-out: Remaining protein kinase activity
CK1δ, sequence (P48730 whole entry): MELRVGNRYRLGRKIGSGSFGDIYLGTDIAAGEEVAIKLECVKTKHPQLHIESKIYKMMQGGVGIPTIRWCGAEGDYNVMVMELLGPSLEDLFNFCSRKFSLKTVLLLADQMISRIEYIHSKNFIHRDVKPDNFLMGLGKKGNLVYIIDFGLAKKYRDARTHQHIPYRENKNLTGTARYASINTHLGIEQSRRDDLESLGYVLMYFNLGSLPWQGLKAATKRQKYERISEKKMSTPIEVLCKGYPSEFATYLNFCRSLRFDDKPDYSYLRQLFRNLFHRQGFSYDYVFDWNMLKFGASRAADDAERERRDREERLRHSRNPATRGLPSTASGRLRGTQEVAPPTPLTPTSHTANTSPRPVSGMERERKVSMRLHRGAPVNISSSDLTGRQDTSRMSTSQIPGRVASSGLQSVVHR

IKKe = target: T1, IKKe (Homo sapiens, UniProt Q14164); conditions: read-out: Remaining protein kinase activity
T1 sequence (Q14164 1-716): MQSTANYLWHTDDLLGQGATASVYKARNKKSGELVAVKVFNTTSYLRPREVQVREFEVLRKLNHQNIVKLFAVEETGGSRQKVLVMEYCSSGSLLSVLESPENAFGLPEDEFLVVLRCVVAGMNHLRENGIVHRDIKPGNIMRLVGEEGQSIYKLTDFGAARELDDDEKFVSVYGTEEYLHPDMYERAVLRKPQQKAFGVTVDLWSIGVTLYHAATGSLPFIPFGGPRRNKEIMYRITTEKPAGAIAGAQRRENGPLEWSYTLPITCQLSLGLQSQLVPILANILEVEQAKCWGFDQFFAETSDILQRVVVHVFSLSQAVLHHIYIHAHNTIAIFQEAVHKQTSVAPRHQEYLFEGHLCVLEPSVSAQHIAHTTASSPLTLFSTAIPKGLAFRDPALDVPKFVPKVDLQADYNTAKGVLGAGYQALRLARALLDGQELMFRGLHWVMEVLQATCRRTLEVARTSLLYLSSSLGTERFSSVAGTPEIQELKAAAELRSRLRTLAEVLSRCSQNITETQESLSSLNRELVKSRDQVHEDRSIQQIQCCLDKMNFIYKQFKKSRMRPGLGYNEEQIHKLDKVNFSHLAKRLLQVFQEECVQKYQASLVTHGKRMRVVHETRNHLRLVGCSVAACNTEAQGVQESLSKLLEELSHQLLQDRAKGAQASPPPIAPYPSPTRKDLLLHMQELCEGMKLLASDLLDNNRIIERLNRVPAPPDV

MAP4K5 = MAP4K5 (Homo sapiens, UniProt Q9Y4K4); conditions: read-out: Remaining protein kinase activity
MAP4K5, sequence (Q9Y4K4 whole entry): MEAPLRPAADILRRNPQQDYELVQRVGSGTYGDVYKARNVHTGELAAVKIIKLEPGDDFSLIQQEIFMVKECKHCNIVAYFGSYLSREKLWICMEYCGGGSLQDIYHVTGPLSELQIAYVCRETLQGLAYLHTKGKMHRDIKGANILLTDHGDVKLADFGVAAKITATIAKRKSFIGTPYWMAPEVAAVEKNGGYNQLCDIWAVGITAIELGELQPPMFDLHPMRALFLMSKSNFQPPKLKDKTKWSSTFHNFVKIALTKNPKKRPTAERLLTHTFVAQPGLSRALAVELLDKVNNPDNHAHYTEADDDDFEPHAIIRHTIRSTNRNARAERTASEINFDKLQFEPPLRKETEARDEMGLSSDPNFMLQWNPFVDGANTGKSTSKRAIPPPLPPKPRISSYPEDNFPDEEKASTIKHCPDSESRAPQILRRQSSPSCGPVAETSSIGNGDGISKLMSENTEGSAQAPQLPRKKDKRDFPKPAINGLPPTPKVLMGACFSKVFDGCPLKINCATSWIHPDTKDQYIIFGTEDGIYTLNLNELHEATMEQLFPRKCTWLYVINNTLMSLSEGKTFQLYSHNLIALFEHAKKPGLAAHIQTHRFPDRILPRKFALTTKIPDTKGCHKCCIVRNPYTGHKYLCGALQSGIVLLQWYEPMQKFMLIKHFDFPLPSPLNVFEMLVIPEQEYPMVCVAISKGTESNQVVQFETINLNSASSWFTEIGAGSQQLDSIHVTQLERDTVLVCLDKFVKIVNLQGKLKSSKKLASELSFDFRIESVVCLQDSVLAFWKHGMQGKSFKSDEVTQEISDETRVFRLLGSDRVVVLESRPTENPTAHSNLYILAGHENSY

MARK3 = MARK3 (Homo sapiens, UniProt P27448); conditions: read-out: Remaining protein kinase activity
MARK3, sequence (P27448 whole entry): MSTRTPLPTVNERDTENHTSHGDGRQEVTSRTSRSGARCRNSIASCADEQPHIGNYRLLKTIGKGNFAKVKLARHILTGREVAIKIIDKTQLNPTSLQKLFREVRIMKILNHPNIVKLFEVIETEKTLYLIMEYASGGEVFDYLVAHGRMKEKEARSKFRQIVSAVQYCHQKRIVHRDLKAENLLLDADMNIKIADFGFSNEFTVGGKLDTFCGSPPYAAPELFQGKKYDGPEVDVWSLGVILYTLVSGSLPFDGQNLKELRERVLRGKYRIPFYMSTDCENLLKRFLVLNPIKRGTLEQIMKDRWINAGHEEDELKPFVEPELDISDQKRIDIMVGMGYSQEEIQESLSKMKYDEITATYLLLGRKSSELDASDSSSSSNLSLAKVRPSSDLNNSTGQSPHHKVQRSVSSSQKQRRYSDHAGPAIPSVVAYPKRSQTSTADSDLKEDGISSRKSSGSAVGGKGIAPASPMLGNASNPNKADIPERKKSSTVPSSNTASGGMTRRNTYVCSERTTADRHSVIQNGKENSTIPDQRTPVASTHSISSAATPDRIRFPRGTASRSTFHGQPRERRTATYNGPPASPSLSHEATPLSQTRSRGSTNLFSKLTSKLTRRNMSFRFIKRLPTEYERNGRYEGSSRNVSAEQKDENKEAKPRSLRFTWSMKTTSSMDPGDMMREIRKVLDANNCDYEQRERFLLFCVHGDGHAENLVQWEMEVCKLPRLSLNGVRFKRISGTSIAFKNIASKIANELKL

MLK1 = MLK1 (Homo sapiens, UniProt P80192); conditions: read-out: Remaining protein kinase activity
MLK1, sequence (P80192 whole entry): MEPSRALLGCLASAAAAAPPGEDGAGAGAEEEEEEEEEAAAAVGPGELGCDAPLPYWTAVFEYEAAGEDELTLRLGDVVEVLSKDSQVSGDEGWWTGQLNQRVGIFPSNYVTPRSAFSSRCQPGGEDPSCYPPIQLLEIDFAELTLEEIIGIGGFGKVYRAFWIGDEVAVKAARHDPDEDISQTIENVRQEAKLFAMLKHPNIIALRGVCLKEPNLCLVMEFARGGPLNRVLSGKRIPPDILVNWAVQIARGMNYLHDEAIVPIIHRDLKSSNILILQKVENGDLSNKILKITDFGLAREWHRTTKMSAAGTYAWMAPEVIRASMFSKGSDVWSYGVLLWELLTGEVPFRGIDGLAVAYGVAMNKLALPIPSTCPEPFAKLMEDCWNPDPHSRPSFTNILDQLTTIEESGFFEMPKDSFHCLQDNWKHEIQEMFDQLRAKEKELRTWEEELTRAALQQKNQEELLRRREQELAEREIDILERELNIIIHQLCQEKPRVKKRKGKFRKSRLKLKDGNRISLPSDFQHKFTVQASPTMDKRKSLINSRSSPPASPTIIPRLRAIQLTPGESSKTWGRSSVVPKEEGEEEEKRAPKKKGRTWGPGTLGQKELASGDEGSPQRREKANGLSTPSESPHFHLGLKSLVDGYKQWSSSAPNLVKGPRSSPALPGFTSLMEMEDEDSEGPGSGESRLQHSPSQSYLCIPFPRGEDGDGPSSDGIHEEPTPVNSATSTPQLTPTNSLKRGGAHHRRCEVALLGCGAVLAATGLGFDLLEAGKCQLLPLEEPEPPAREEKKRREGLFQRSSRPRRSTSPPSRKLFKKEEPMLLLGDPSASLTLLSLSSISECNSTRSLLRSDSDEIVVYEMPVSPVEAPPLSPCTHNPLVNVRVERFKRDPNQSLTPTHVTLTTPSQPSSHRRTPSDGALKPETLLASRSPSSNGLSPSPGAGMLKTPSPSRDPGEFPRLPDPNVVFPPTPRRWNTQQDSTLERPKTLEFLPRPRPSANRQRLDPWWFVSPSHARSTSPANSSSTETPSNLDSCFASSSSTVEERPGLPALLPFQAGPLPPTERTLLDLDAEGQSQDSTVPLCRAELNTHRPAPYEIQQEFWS

MST2 = target: T2, MST2 (Homo sapiens, UniProt Q13188); conditions: read-out: Remaining protein kinase activity
T2 sequence (Q13188 1-491): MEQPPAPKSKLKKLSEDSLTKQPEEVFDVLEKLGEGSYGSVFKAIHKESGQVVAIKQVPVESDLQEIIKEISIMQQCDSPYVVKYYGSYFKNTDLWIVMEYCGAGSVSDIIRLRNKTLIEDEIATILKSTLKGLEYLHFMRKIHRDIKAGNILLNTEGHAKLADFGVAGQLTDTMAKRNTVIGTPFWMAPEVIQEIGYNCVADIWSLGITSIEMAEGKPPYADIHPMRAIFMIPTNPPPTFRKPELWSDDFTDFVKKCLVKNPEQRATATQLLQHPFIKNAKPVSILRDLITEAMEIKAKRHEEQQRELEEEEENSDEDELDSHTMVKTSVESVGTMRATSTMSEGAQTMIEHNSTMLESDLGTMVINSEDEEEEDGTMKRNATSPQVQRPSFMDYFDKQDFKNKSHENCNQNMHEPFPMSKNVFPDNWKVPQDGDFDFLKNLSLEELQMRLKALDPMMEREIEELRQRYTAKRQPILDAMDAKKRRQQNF

COc1ccc2sc(-c3cncc(N)c3)nc2c1 [compound 1, 5-(5-Methoxybenzo[d]thiazol-2-yl)pyridin-3-amine]
Remaining protein kinase activity (CDK2-Cyclin A; 1 μM): 96% | Remaining protein kinase activity (CDK2-Cyclin A; 100 μM): 19% | remaining activity at 1 µM (CK1δ; CK1δ, 1 μM): 107% | remaining activity at 100 µM (CK1δ; CK1δ, 100 μM): 13% | remaining activity at 1 µM (IKKe; IKKe, 1 μM): 110% | remaining activity at 100 µM (IKKe; IKKe, 100 μM): 55% | remaining activity at 1 µM (MAP4K5; MAP4K5, 1 μM): 106% | remaining activity at 100 µM (MAP4K5; MAP4K5, 100 μM): 61% | remaining activity at 1 µM (MARK3; MARK3, 1 μM): 98% | remaining activity at 100 µM (MARK3; MARK3, 100 μM): 34% | remaining activity at 1 µM (MLK1; MLK1, 1 μM): 106% | remaining activity at 100 µM (MLK1; MLK1, 100 μM): 16% | remaining activity at 1 µM (MST2; MST2, 1 μM): 124% | remaining activity at 100 µM (MST2; MST2, 100 μM): 32%

COc1ccc2sc(-c3cncc(NC(C)=O)c3)nc2c1 [PST-001, N-(5-(5-Methoxybenzo[d]thiazol-2-yl)pyridin-3-yl)acetamide]
Remaining protein kinase activity (CDK2-Cyclin A; 1 μM): 110% | Remaining protein kinase activity (CDK2-Cyclin A; 100 μM): 69% | remaining activity at 1 µM (CK1δ): 99% | remaining activity at 100 µM (CK1δ): 59% | remaining activity at 1 µM (IKKe): 105% | remaining activity at 100 µM (IKKe): 122% | remaining activity at 1 µM (MAP4K5): 82% | remaining activity at 100 µM (MAP4K5): 92% | remaining activity at 1 µM (MARK3): 99% | remaining activity at 100 µM (MARK3): 95% | remaining activity at 1 µM (MLK1): 108% | remaining activity at 100 µM (MLK1): 96% | remaining activity at 1 µM (MST2): 120% | remaining activity at 100 µM (MST2): 54%
